In patent US11059780B2, “Substituted pyrrolidine compound and use thereof” (Takeda Pharmaceutical Company Limited, priority 2017, dated 2021):

The compounds below were run against T1, human orexin type 2 receptor (hOX2R) (Homo sapiens, UniProt O43614) (assay: Measurement of orexin type 2 receptor agonist activity (Fluo-4 calcium fluorescence, CHO cells forcibly expressing human OX2 receptor)). Details: test compound 3 μM, DMSO = 0%, orexin A (human) 10 nM = 100%.
T1 construct: expressed in transfected cells
T1 sequence (O43614 1-444): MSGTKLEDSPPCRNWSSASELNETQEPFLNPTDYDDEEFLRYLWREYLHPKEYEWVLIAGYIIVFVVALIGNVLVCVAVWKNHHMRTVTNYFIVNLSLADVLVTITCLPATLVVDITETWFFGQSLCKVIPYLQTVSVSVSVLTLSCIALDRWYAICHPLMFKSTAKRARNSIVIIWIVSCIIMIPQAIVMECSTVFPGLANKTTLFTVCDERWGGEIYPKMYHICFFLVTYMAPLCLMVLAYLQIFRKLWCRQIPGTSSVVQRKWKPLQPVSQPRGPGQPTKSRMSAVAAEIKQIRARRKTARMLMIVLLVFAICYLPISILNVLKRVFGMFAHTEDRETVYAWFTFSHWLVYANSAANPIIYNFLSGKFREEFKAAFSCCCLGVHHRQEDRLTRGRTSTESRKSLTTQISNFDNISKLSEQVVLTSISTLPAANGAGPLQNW
Assay type: cell-based
Description: Experimental Example 1: Obtainment of Cell Stably Expressing Human Orexin Type 2 Receptor (hOX2R)
To obtain a cell clone stably expressing human orexin type 2 receptor, human orexin type 2 receptor cDNA was inserted into pcDNA3.1(+) plasmid vector (Invitrogen), and a plasmid DNA for expression of human orexin type 2 receptor (pcDNA3.1(+)/hOX2R) was cloned. The plasmid DNA was introduced into CHO-dhfr cell by an electroporation method, and human orexin type 2 receptor expressing clone cells were obtained by limiting dilution method by using G418 drug resistance as a selection marker.
Experimental Example 2: Measurement of Orexin Type 2 Receptor Agonist Activity
CHO cells forcibly expressing human OX2 receptor were seeded in each well of 384 well black transparent bottom plate (BD Falcon) at 7,500 cells/well, and cultured for one day in a 5% CO2 incubator at 37° C. After removal of the medium in the cell plate, assay buffer A containing a calcium indicator (HBSS (Life Technologies), 20 mM HEPES (Life Technologies), 0.1% BSA (Wako Pure Chemical Industries, Ltd.), 2.5 μg/mL Fluo-4 AM (DOJINDO Chemical), 0.08% Pluronic F127 (DOJINDO Chemical), 1.25 mM probenecid (DOJINDO Chemical)) was added at 30 μL/well. The plate was stood for 30 min in a 5% CO2 incubator at 37° C., and further stood at room temperature for 30 min. A test compound prepared by diluting with assay buffer B (HBSS, 20 mM HEPES, 0.1% BSA) was added at 10 μL/well, and the fluorescence value was measured by FDSSpCELL (Hamamatsu Photonics K.K.) every one sec for 1 min, and thereafter every two sec for 1 min 40 sec. The activity (%) of the test compound was calculated assuming that variation in the fluorescence value when DMSO was added instead of the test compound was 0% […], and variation in the fluorescence value when orexin A (human) (PEPTIDE INSTITUTE, INC.) was added at the final concentration of 10 nM was 100% […]. The activity of each compound at the concentration of 3 μM was shown below.

SMILES | OX2R agonist activity (3 μM, %)
CO[C@@H]1CN(C(=O)c2cc(C)ccc2C)C[C@H]1Oc1cccc(NS(=O)(=O)N(C)C2CC2)c1 (relative stereo) [Example 44, trans-N-cyclopropyl-N′-(3-((1-(2,5-dimethylbenzoyl)-4-methoxypyrrolidin-3-yl)oxy)phenyl)-N-methylsulfuric diamide] | 73%
CO[C@@H]1CN(C(=O)c2cc(C)ccc2C)C[C@H]1Oc1cccc(NS(=O)(=O)N(C)C2COC2)c1 (relative stereo) [Example 45, trans-N′-(3-((1-(2,5-dimethylbenzoyl)-4-methoxypyrrolidin-3-yl)oxy)phenyl)-N-methyl-N-oxetan-3-ylsulfuric diamide] | 82%
CO[C@@H]1CN(C(=O)c2cc(C)ccc2C)C[C@H]1Oc1cccc(NS(=O)(=O)N(C)C2CCOC2)c1 (relative stereo) [Example 46, trans-N′-(3-((1-(2,5-dimethylbenzoyl)-4-methoxypyrrolidin-3-yl)oxy)phenyl)-N-methyl-N-(tetrahydrofuran-3-yl)sulfuric diamide] | 94%
CO[C@@H]1CN(C(=O)c2cc(C)ccc2C)C[C@H]1Oc1cccc(NS(=O)(=O)N(C)C2CCOCC2)c1 (relative stereo) [Example 47, trans-N′-(3-((1-(2,5-dimethylbenzoyl)-4-methoxypyrrolidin-3-yl)oxy)phenyl)-N-methyl-N-(tetrahydro-2H-pyran-4-yl)sulfuric diamide] | 106%
CO[C@@H]1CN(C(=O)c2cc(C)ccc2C)C[C@H]1Oc1cccc(NS(=O)(=O)N2CCC2)c1 (relative stereo) [Example 48, trans-N-(3-((1-(2,5-dimethylbenzoyl)-4-methoxypyrrolidin-3-yl)oxy)phenyl)azetidine-1-sulfonamide] | 62%
COCC1CCCN1S(=O)(=O)Nc1cccc(O[C@@H]2CN(C(=O)c3cc(C)ccc3C)C[C@H]2OC)c1 (relative stereo) [Example 50, trans-N-(3-((1-(2,5-dimethylbenzoyl)-4-methoxypyrrolidin-3-yl)oxy)phenyl)-2-(methoxymethyl)pyrrolidine-1-sulfonamide] | 87%
CO[C@@H]1CN(C(=O)c2cc(C)ccc2C)C[C@H]1Oc1cccc(NS(=O)(=O)N2CCCC2c2ccncc2)c1 (relative stereo) [Example 52, trans-N-(3-((1-(2,5-dimethylbenzoyl)-4-methoxypyrrolidin-3-yl)oxy)phenyl)-2-(pyridin-4-yl)pyrrolidine-1-sulfonamide] | 83%
CO[C@@H]1CN(C(=O)c2cc(C)ccc2C)C[C@H]1Oc1cccc(NS(=O)(=O)N2CCC(c3cccnc3)C2)c1 (relative stereo) [Example 53, trans-N-(3-((1-(2,5-dimethylbenzoyl)-4-methoxypyrrolidin-3-yl)oxy)phenyl)-3-(pyridin-3-yl)pyrrolidine-1-sulfonamide] | 99%
CO[C@@H]1CN(C(=O)c2cc(C)ccc2C)C[C@H]1Oc1cccc(NS(=O)(=O)N2CCOC(C)C2)c1 (relative stereo) [Example 54, trans-N-(3-((1-(2,5-dimethylbenzoyl)-4-methoxypyrrolidin-3-yl)oxy)phenyl)-2-methylmorpholine-4-sulfonamide] | 85%
CO[C@@H]1CN(C(=O)c2cc(C)ccc2C)C[C@H]1Oc1cccc(NS(=O)(=O)N(C)Cc2cccnc2)c1 (relative stereo) [Example 61, trans-N′-(3-((1-(2,5-dimethylbenzoyl)-4-methoxypyrrolidin-3-yl)oxy)phenyl)-N-methyl-N-(pyridin-3-ylmethyl)sulfuric diamide] | 87%
CO[C@@H]1CN(C(=O)c2cc(C)ccc2C)C[C@H]1Oc1cccc(NS(=O)(=O)N(C)CC2CCOC2)c1 (relative stereo) [Example 62, trans-N′-(3-((1-(2,5-dimethylbenzoyl)-4-methoxypyrrolidin-3-yl)oxy)phenyl)-N-methyl-N-(tetrahydrofuran-3-ylmethyl)sulfuric diamide] | 74%
CO[C@@H]1CN(C(=O)c2cc(C)ccc2C)C[C@H]1Oc1cccc(NS(=O)(=O)N2CCC23COC3)c1 (relative stereo) [Example 63, trans-N-(3-((1-(2,5-dimethylbenzoyl)-4-methoxypyrrolidin-3-yl)oxy)phenyl)-6-oxa-1-azaspiro[3.3]heptane-1-sulfonamide] | 77%
COC1CN(C(=O)c2cc(C)ccc2C)CC1Oc1cccc(NS(=O)(=O)N2C[C@H]3C[C@H]2C3)c1 (relative stereo) [Example 64, trans-N-(3-((1-(2,5-dimethylbenzoyl)-4-methoxypyrrolidin-3-yl)oxy)phenyl)-2-azabicyclo[2.1.1]hexane-2-sulfonamide] | 75%
COc1ccccc1C1CCCN1S(=O)(=O)Nc1cccc(O[C@@H]2CN(C(=O)c3cc(C)ccc3C)C[C@H]2OC)c1 (relative stereo) [Example 66, trans-N-(3-((1-(2,5-dimethylbenzoyl)-4-methoxypyrrolidin-3-yl)oxy)phenyl)-2-(2-methoxyphenyl)pyrrolidine-1-sulfonamide] | 72%
CO[C@@H]1CN(C(=O)c2cc(C)ccc2C)C[C@H]1Oc1cccc(NS(=O)(=O)N2CCCC2Cc2cccnc2)c1 (relative stereo) [Example 67, trans-N-(3-((1-(2,5-dimethylbenzoyl)-4-methoxypyrrolidin-3-yl)oxy)phenyl)-2-(pyridin-3-ylmethyl)pyrrolidine-1-sulfonamide] | 82%
CO[C@@H]1CN(C(=O)c2cc(C)ccc2C)C[C@H]1Oc1cccc(NS(=O)(=O)N2CCC(C)C2)c1 (relative stereo) [Example 68, trans-N-(3-((1-(2,5-dimethylbenzoyl)-4-methoxypyrrolidin-3-yl)oxy)phenyl)-3-methylpyrrolidine-1-sulfonamide] | 84%
CO[C@@H]1CN(C(=O)c2cc(C)ccc2C)C[C@H]1Oc1cccc(NS(=O)(=O)N2CCC3(CC3)C2)c1 (relative stereo) [Example 69, trans-N-(3-((1-(2,5-dimethylbenzoyl)-4-methoxypyrrolidin-3-yl)oxy)phenyl)-5-azaspiro[2.4]heptane-5-sulfonamide] | 82%
CO[C@@H]1CN(C(=O)c2cc(C)ccc2C)C[C@H]1Oc1cccc(NS(=O)(=O)N2CCC3(COC3)C2)c1 (relative stereo) [Example 70, trans-N-(3-((1-(2,5-dimethylbenzoyl)-4-methoxypyrrolidin-3-yl)oxy)phenyl)-2-oxa-6-azaspiro[3.4]octane-6-sulfonamide] | 90%
COC1CN(C(=O)c2cc(C)ccc2C)CC1Oc1cccc(NS(=O)(=O)N2CC[C@@H]3C[C@H]32)c1 (relative stereo) [Example 72, trans-N-(3-((1-(2,5-dimethylbenzoyl)-4-methoxypyrrolidin-3-yl)oxy)phenyl)-2-azabicyclo[3.1.0]hexane-2-sulfonamide] | 74%
COC1CN(C(=O)c2cc(C)ccc2C)CC1Oc1cccc(NS(=O)(=O)N2C[C@@H]3C[C@H]3C2)c1 (relative stereo) [Example 73, trans-N-(3-((1-(2,5-dimethylbenzoyl)-4-methoxypyrrolidin-3-yl)oxy)phenyl)-3-azabicyclo[3.1.0]hexane-3-sulfonamide] | 91%
COC1CN(C(=O)c2cc(C)ccc2C)CC1Oc1cccc(NS(=O)(=O)N2CC[C@H]3CCN(C)C[C@@H]32)c1 (relative stereo) [Example 76, trans-N-(3-((1-(2,5-dimethylbenzoyl)-4-methoxypyrrolidin-3-yl)oxy)phenyl)-6-methyloctahydro-1H-pyrrolo[2,3-c]pyridine-1-sulfonamide] | 82%
COC1CN(C(=O)c2cc(C)ccc2C)CC1Oc1cccc(NS(=O)(=O)N2C[C@@H]3CC[C@@H](C2)O3)c1 (relative stereo) [Example 80, trans-N-(3-((1-(2,5-dimethylbenzoyl)-4-methoxypyrrolidin-3-yl)oxy)phenyl)-8-oxa-3-azabicyclo[3.2.1]octane-3-sulfonamide] | 94%
